Reference: US20050020611A1, “Compounds” (priority 2003, published 2005)

Legend:
[1] = test system: TNFα release from human peripheral blood mononuclear cells; assay: Inhibition of LPS-stimulated TNFα release from human peripheral blood mononuclear cells (TNFα screen, ELISA); format: cell-based; details: human PBMC, 18 hours incubation, TNFα in supernatant by ELISA
Experimental: Venous blood is collected from healthy volunteers and the mononuclear cells purified by centrifugation through Histopaque (Ficoll) cushions. TNFα production from these cells is stimulated by addition of lipopolysaccharide. After 18 hours incubation in the presence of LPS, the cell supernatant is removed and the concentration of TNFα in the supernatant determined by ELISA.

PDE4 = PDE4 inhibition: hydrolysis of tritium labelled cAMP to AMP, SPA bead scintillation counting; format: biochemical; details: 50% reduction in counts compared to PDE4 only control wells
Experimental: The PDE4 inhibitory activity of the nicotinamide derivatives of the formula (I) is determined by the ability of compounds to inhibit the hydrolysis of cAMP to AMP by PDE4 (Thompson J W, Teraski W L, Epstein P M, Strada S J., “Assay of nucleotidephosphodiesterase and resolution of multiple molecular forms of the isoenzyme”, Advances in cyclic nucleotides research, edited by Brooker G, Greengard P, Robinson G A. Raven Press, New York 1979, 10, p. 69-92). Tritium labelled cAMP is incubated with PDE4. Following incubation, the radiolabelled AMP produced is able to bind yttrium silicate SPA beads. These SPA beads subsequently produce light that can be quantified by scintillation counting. The addition of a PDE4 inhibitor prevents the formation of AMP from cAMP and counts are diminished. The IC50 of a PDE4 inhibitor can be defined as the concentration of a compound that leads to a 50% reduction in counts compared to the PDE4 only (no inhibitor) control wells.

Compound	IC50 [1] [nM]	IC50 (PDE4) [nM]
Cc1ccc(C(=O)N[C@H]2CC[C@@H](NC(=O)c3cc(F)cnc3OC3CCSCC3)CC2)c(OCCO)c1 [Example 10]	0.04	5
O=C(N[C@H]1CC[C@@H](NC(=O)c2cc(F)cnc2OC2CCSCC2)CC1)c1ccc(O)cc1OC1CCCC1 [Example 24, Syn-N-[4-(2-Cyclopentoxy-4-hydroxy-benzoylamino)-cyclohexyl]-5-fluoro-2-(tetrahydro-thiopyran-4-yloxy)-nicotinamide]	0.1	
COc1ccc2cccnc2c1S(=O)(=O)N[C@H]1CC[C@@H](NC(=O)c2cccnc2OC2CCSCC2)CC1 [Example 29, Syn-N-[4-(7-methoxy-quinoline-8-sulfonylamino)-cyclohexyl]-2-(tetrahydro-thiopyran-4-yloxy)-nicotinamide]	0.4	
COc1ccc(C)cc1S(=O)(=O)N[C@H]1CC[C@@H](NC(=O)c2cccnc2OC2CCSCC2)CC1 [Example 27, Syn-N-[4-(2-methoxy-5-methyl-benzenesulfonylamino)-cyclohexyl]-2-(tetrahydro-thiopyran-4-yloxy)-nicotinamide]	5	
COc1cc(O)ccc1C(=O)N[C@H]1CC[C@@H](NC(=O)c2cc(F)cnc2OC2CCSCC2)CC1 [Example 1]	0.7	
Cc1cccc(C(=O)N[C@H]2CC[C@@H](NC(=O)c3cc(F)cnc3OC3CCSCC3)CC2)c1OCCO [Example 9]	0.1	2.8
COc1ccn2ccnc2c1C(=O)N[C@H]1CC[C@@H](NC(=O)c2cc(F)cnc2OC2CCSCC2)CC1 [Example 3, Syn-7-Methoxy-imidazo[1,2-a]pyridine-8-carboxylic acid(4-{[5-fluoro-2-(tetrahydro-thiopyran-4-yloxy)-pyridine-3-carbonyl]-amino}-cyclohexyl)amide]	0.02	
Cc1ccc(OCCO)c(C(=O)N[C@H]2CC[C@@H](NC(=O)c3cc(F)cnc3OC3CCSCC3)CC2)c1 [Example 5]	0.02	1
O=C(N[C@H]1CC[C@@H](NC(=O)c2cc(F)cnc2OC2CCSCC2)CC1)c1ccccc1OCCCO [Example 14, Syn-5-Fluoro-N-{4-[2-(3-hydroxy-propoxy)-benzoylamino]-cyclohexyl}-2-(tetrahydro-thiopyran-4-yloxy)-nicotinamide]	0.1	
O=C(N[C@H]1CC[C@@H](NC(=O)c2cc(F)cnc2OC2CCSCC2)CC1)c1ccc(O)cc1OCC1CC1 [Example 23]	0.2	
CCOc1cc(O)ccc1C(=O)N[C@H]1CC[C@@H](NC(=O)c2cc(F)cnc2OC2CCSCC2)CC1 [Example 22, Syn-N-[4-(2-Ethoxy-4-hydroxy-benzoylamino)-cyclohexyl]-5-fluoro-2-(tetrahydro-thiopyran-4-yloxy)-nicotinamide]	0.2	
O=C(N[C@H]1CC[C@@H](NC(=O)c2cc(F)cnc2OC2CCSCC2)CC1)c1ccccc1OCCO [Example 4, Syn-5-Fluoro-N-{4-[2-(2-hydroxy-ethoxy)-benzoylamino]-cyclohexyl}-2-(tetrahydro-thiopyran-4-yloxy)-nicotinamide]	0.04	1.5
COc1ccc2cccnc2c1S(=O)(=O)N[C@H]1CC[C@@H](NC(=O)c2cc(F)cnc2OC2CCSCC2)CC1 [Example 28, Syn-5-Fluoro-N-[4-(7-methoxy-quinoline-8-sulfonylamino)-cyclohexyl]-2-(tetrahydro-thiopyran-4-yloxy)-nicotinamide]	0.2	
Cc1cnc(OC2CCSCC2)c(C(=O)N[C@H]2CC[C@@H](NC(=O)c3ccccc3OCCO)CC2)c1 [Example 13, Syn-N-{4-[2-(2-Hydroxy-ethoxy)-benzoylamino]-cyclohexyl}-5-methyl-2-(tetrahydro-thiopyran-4-yloxy)-nicotinamide]	4	
COc1ccccc1-c1cc(C(=O)N[C@H]2CC[C@@H](NC(=O)c3cc(F)cnc3OC3CCSCC3)CC2)n[nH]1 [Example 2, Syn-5-Fluoro-N-(4-{[5-(2-methoxy-phenyl)-1H-pyrazole-3-carbonyl]-amino}-cyclohexyl)-2-(tetrahydro-thiopyran-4-yloxy)-nicotinamide]	1.5	
